Results taken from US4415558A, “CRF And analogs” (The Salk Institute for Biological Studies, priority 1982, dated 1983).
Where a SMILES comes first, the peptide text is derived from it. [ ]: non-standard residue; d: D form. Nle = CCCC[C@H](N)C(=O)O

Columns and labels:
[1] = system: cultured rat pituitary cells; assay: Secretion of ACTH and β-endorphin by cultured rat pituitary cells; format: cell-based; conditions: general procedure set forth in Example III; in vitro or in vivo not specified
Method: The synthetic and the natural CRF were examined for their effects on the secretion of ACTH and β-endorphin in vitro and the synthetic CRF was also examined in vivo. The high potency of synthetic and natural CRF to stimulate the secretion of ACTH and β-endorphin by cultured rat pituitary cells was measured. […] The secretory response to maximal (>5 nM) concentrations of CRF is at a plateau level. In vivo doses from 30 ng to 3 μg/Kg of body weight rapidly elevated ACTH and β-endorphin-like (β-END-LI) secretions 5-20 fold.

[2] = Blood pressure in rats (mean carotid blood pressure, urethane-anesthetized rat); format: in vivo; conditions: general procedure set forth in Example III
Method: Plasma levels of ACTH and β-END-LI are elevated for at least 5-20 minutes following the intravenous administration of CRF to nembutal-anesthesized male rats and to quiescent male or female rats with indwelling intravenous cannulae. […] Mean cartoid blood pressure in a urethane-anesthesized rat fell from 87 to 72±2 mm Hg and remained at that level for 30 minutes following an injection equal to 3 μg CRF/Kg body weight; the subsequent administration of an injection equal to 30 μg CRF/Kg body weight lowered mean blood pressure to 42±3 mm Hg for more than 2 hours.

Compound	Stimulation of secretion of ACTH and β-END-LI (in words) [1]	Lowering of blood pressure (in words) [2]
CC[C@H](C)[C@H](NC(=O)[C@@H](NC(=O)[C@H](CC(=O)O)NC(=O)[C@H](CC(C)C)NC(=O)[C@H](CC(C)C)NC(=O)[C@H](CC(C)C)NC(=O)[C@H](CCCNC(=N)N)NC(=O)[C@H](CC(N)=O)NC(=O)[C@H](CC(N)=O)NC(=O)[C@H](C)NC(=O)[C@H](C)NC(=O)[C@H](CCC(N)=O)NC(=O)[C@H](CCC(N)=O)NC(=O)[C@H](CCCCN)NC(=O)[C@H](CCC(=O)O)NC(=O)[C@H](CCCCN)NC(=O)[C@H](CCC(=O)O)NC(=O)[C@H](CCC(N)=O)NC(=O)[C@H](CCCCN)NC(=O)[C@H](CCC(=O)O)NC(=O)[C@@H](NC(=O)[C@H](CCC(=O)O)NC(=O)[C@@H](NC(=O)[C@H](CCSC)NC(=O)[C@H](CCCCN)NC(=O)[C@H](CCCNC(=N)N)NC(=O)[C@H](CC(C)C)NC(=O)[C@H](CC(C)C)NC(=O)[C@H](CCC(=O)O)NC(=O)[C@H](CC(C)C)NC(=O)[C@H](CO)NC(=O)[C@H](CC(C)C)NC(=O)[C@H](CC(=O)O)NC(=O)[C@@H](NC(=O)[C@H](CO)NC(=O)[C@@H](NC(=O)[C@@H]1CCCN1C(=O)[C@@H]1CCCN1)[C@@H](C)CC)[C@@H](C)CC)[C@@H](C)CC)[C@@H](C)CC)[C@@H](C)O)C(N)=O [[des pGlu^1 -Gly^2]-sauvagine]	stimulates the secretion of ACTH and β-END-LI	very significant lowering of blood pressure
H-SQEPPISIDLSFHLLREVLEMTKADQLAQQAHNNRKLLDIA-NH2 [[Ile^8, Ser^11, Asn^33]-CRF]	stimulates the secretion of ACTH and β-END-LI	very significant lowering of blood pressure
H-SQEPPISLDLTFHLLREVLE[Nle]TKADQLAQQAYSNRKLLDIA-NH2 [[Nle^21, Tyr^32]-CRF]	stimulates the secretion of ACTH and β-END-LI	very significant lowering of blood pressure to a greater extent than CRF
CC[C@H](C)[C@H](NC(=O)[C@H](CC(=O)O)NC(=O)[C@H](CC(C)C)NC(=O)[C@H](CC(C)C)NC(=O)[C@H](CCCCN)NC(=O)[C@H](CCCNC(=N)N)NC(=O)[C@H](CC(N)=O)NC(=O)[C@H](CO)NC(=O)[C@H](Cc1c[nH]cn1)NC(=O)[C@H](C)NC(=O)[C@H](CCC(N)=O)NC(=O)[C@H](CCC(N)=O)NC(=O)[C@H](C)NC(=O)[C@H](CC(C)C)NC(=O)[C@H](CCC(N)=O)NC(=O)[C@H](CC(=O)O)NC(=O)[C@H](C)NC(=O)[C@H](CCCCN)NC(=O)[C@@H](NC(=O)[C@H](CCSC)NC(=O)[C@H](CCC(=O)O)NC(=O)[C@H](CC(C)C)NC(=O)[C@@H](NC(=O)[C@H](CCC(=O)O)NC(=O)[C@H](CCCNC(=N)N)NC(=O)[C@H](CC(C)C)NC(=O)[C@H](CC(C)C)NC(=O)[C@H](Cc1c[nH]cn1)NC(=O)[C@H](Cc1ccccc1)NC(=O)[C@@H](NC(=O)[C@H](CC(C)C)NC(=O)[C@H](CC(=O)O)NC(=O)[C@H](CC(C)C)NC(=O)[C@H](CO)NC(=O)[C@@H](NC(=O)[C@@H]1CCCN1C(=O)[C@@H]1CCCN1C(=O)[C@H](CCC(=O)O)NC(=O)[C@H](CCC(N)=O)NC(=O)[C@@H](N)CO)[C@@H](C)CC)[C@@H](C)O)C(C)C)[C@@H](C)O)C(N)=O [[des Ala^41]-CRF] (H-SQEPPISLDLTFHLLREVLEMTKADQLAQQAHSNRKLLDI-NH2)	stimulates the secretion of ACTH and β-END-LI	very significant lowering of blood pressure
CC[C@H](C)[C@H](NC(=O)[C@@H](NC(=O)[C@H](CC(=O)O)NC(=O)[C@H](CC(C)C)NC(=O)[C@H](CC(C)C)NC(=O)[C@H](CC(C)C)NC(=O)[C@H](CCCNC(=N)N)NC(=O)[C@H](CC(N)=O)NC(=O)[C@H](CC(N)=O)NC(=O)[C@H](C)NC(=O)[C@H](C)NC(=O)[C@H](CCC(N)=O)NC(=O)[C@H](CCC(N)=O)NC(=O)[C@H](CCCCN)NC(=O)CNC(=O)[C@H](CCCCN)NC(=O)[C@H](CCC(=O)O)NC(=O)[C@H](CCC(N)=O)NC(=O)[C@H](CCCCN)NC(=O)[C@H](CCC(=O)O)NC(=O)[C@@H](NC(=O)[C@H](CCC(=O)O)NC(=O)[C@@H](NC(=O)[C@H](CCSC)NC(=O)[C@H](CCCCN)NC(=O)[C@H](CCCNC(=N)N)NC(=O)[C@H](CC(C)C)NC(=O)[C@H](CC(C)C)NC(=O)[C@H](CCC(=O)O)NC(=O)[C@H](CC(C)C)NC(=O)[C@H](CO)NC(=O)[C@H](CC(C)C)NC(=O)[C@H](CC(=O)O)NC(=O)[C@@H](NC(=O)[C@H](CO)NC(=O)[C@@H](NC(=O)[C@@H]1CCCN1C(=O)[C@@H]1CCCN1C(=O)CNC(=O)[C@@H]1CCC(=O)N1)[C@@H](C)CC)[C@@H](C)CC)[C@@H](C)CC)[C@@H](C)CC)[C@@H](C)O)C(N)=O [[Gly^26]-sauvagine]	stimulates the secretion of ACTH and β-END-LI	very significant lowering of blood pressure
CC[C@H](C)[C@H](NC(=O)[C@H](CC(=O)O)NC(=O)[C@H](CC(C)C)NC(=O)[C@H](CC(C)C)NC(=O)[C@H](CCCCN)NC(=O)[C@H](CCCNC(=N)N)NC(=O)[C@H](CC(N)=O)NC(=O)[C@H](CO)NC(=O)[C@H](Cc1c[nH]cn1)NC(=O)[C@H](C)NC(=O)[C@H](CCC(N)=O)NC(=O)[C@H](CCC(N)=O)NC(=O)[C@H](C)NC(=O)[C@H](CC(C)C)NC(=O)[C@H](CCC(N)=O)NC(=O)[C@H](CC(=O)O)NC(=O)[C@H](C)NC(=O)[C@H](CCCCN)NC(=O)[C@@H](NC(=O)[C@H](CCSC)NC(=O)[C@H](CCC(=O)O)NC(=O)[C@H](CC(C)C)NC(=O)[C@@H](NC(=O)[C@H](CCC(=O)O)NC(=O)[C@H](CCCNC(=N)N)NC(=O)[C@H](CC(C)C)NC(=O)[C@H](CC(C)C)NC(=O)[C@H](Cc1c[nH]cn1)NC(=O)[C@H](Cc1ccccc1)NC(=O)[C@@H](NC(=O)[C@H](CC(C)C)NC(=O)[C@H](CC(=O)O)NC(=O)[C@H](CC(C)C)NC(=O)[C@H](CO)NC(=O)[C@@H](NC(=O)[C@@H]1CCCN1C(=O)[C@@H]1CCCN1C(C)=O)[C@@H](C)CC)[C@@H](C)O)C(C)C)[C@@H](C)O)C(=O)N[C@@H](C)C(N)=O [[Acetyl-Pro^4]-CRF]	stimulates the secretion of ACTH and β-END-LI	very significant lowering of blood pressure to a greater extent than CRF
CC[C@H](C)[C@H](NC(=O)[C@H](CC(=O)O)NC(=O)[C@H](CC(C)C)NC(=O)[C@H](CC(C)C)NC(=O)[C@H](CCCCN)NC(=O)[C@H](CCCNC(=N)N)NC(=O)[C@H](CC(N)=O)NC(=O)[C@H](CO)NC(=O)[C@H](Cc1c[nH]cn1)NC(=O)[C@H](C)NC(=O)[C@H](CCC(N)=O)NC(=O)[C@H](CCC(N)=O)NC(=O)[C@H](C)NC(=O)[C@H](CC(C)C)NC(=O)[C@H](CCC(N)=O)NC(=O)[C@H](CC(=O)O)NC(=O)[C@H](C)NC(=O)[C@H](CCCCN)NC(=O)[C@@H](NC(=O)[C@H](CCSC)NC(=O)[C@H](CCC(=O)O)NC(=O)[C@H](CC(C)C)NC(=O)[C@@H](NC(=O)[C@H](CCC(=O)O)NC(=O)[C@H](CCCNC(=N)N)NC(=O)[C@H](CC(C)C)NC(=O)[C@H](CC(C)C)NC(=O)[C@H](Cc1c[nH]cn1)NC(=O)[C@H](Cc1ccccc1)NC(=O)[C@@H](NC(=O)[C@H](CC(C)C)NC(=O)[C@H](CC(=O)O)NC(=O)[C@H](CC(C)C)NC(=O)[C@H](CO)NC(=O)[C@@H](NC(=O)[C@@H]1CCCN1C(=O)[C@@H]1CCCN1C(=O)[C@H](CCC(=O)O)NC(=O)[C@H](CCC(N)=O)NC(=O)[C@H](C)NC(C)=O)[C@@H](C)CC)[C@@H](C)O)C(C)C)[C@@H](C)O)C(=O)N[C@@H](C)C(N)=O [[Acetyl-Ala^1]-CRF]	stimulates the secretion of ACTH and β-END-LI	very significant lowering of blood pressure
CC[C@H](C)[C@H](NC(=O)[C@H](CCC(=O)O)NC(=O)[C@@H](NC(=O)[C@H](CCSC)NC(=O)[C@H](CCCCN)NC(=O)[C@H](CCCNC(=N)N)NC(=O)[C@H](CC(C)C)NC(=O)[C@H](CC(C)C)NC(=O)[C@H](CCC(=O)O)NC(=O)[C@H](CC(C)C)NC(=O)[C@H](CO)NC(=O)[C@H](CC(C)C)NC(=O)[C@H](CC(=O)O)NC(=O)[C@@H](NC(=O)[C@H](CO)NC(=O)[C@@H](NC(=O)[C@@H]1CCCN1C(=O)[C@@H]1CCCN1C(=O)CNC(=O)[C@@H]1CCC(=O)N1)[C@@H](C)CC)[C@@H](C)CC)[C@@H](C)CC)C(=O)N[C@@H](CCC(=O)O)C(=O)N[C@@H](CCCCN)C(=O)N[C@@H](CCC(N)=O)C(=O)N[C@@H](CCC(=O)O)C(=O)N[C@@H](CCCCN)C(=O)N[C@@H](CCC(=O)O)C(=O)N[C@@H](CCCCN)C(=O)N[C@@H](CCC(N)=O)C(=O)N[C@@H](CCC(N)=O)C(=O)N[C@@H](C)C(=O)N[C@@H](C)C(=O)N[C@@H](CC(N)=O)C(=O)N[C@@H](CC(N)=O)C(=O)N[C@@H](CCCNC(=N)N)C(=O)N[C@@H](CC(C)C)C(=O)N[C@@H](CC(C)C)C(=O)N[C@@H](CC(C)C)C(=O)N[C@@H](CC(=O)O)C(=O)N[C@@H](C)C(=O)N[C@@H](C)C(N)=O [[Ala^39, Ala^40]-sauvagine]	stimulates the secretion of ACTH and β-END-LI	very significant lowering of blood pressure
H-SQEPPISLDLTFYLLREVLE[Nle]TKADQLAQQAHSNRKLLDIA-NH2 [[Tyr^13, Nle^21]-CRF]	stimulates the secretion of ACTH and β-END-LI	very significant lowering of blood pressure to a greater extent than CRF
